{"source": "paper PMC6745270", "about": "(Neuropharmacology, 2019)", "key": {"rats [1]": {"tested_on": "rats", "conditions": "ref You et al., 2017, cited from earlier work"}, "[2]": {"conditions": "ref Higley et al., 2011, Maramai et al., 2016, Nathan et al., 2012, Stossel et al., 2017, Thanos et al., 2008, Thomsen et al., You et al.; cited from earlier work"}, "[3]": {"conditions": "ref Xi and Gardner, 2007; cited from earlier work"}, "wild-type C57BL/6J mice": {"tested_on": "wild-type C57BL/6J mice", "assay": "Sucrose self-administration", "format": "in vivo, mouse"}, "Long-Evans rats [4]": {"tested_on": "Long-Evans rats", "assay": "Oxycodone self-administration under FR1 reinforcement", "format": "in vivo, rat"}, "[5]": {"assay": "Pharmacokinetic study in rats, plasma and brain", "format": "in vivo", "conditions": "rat, plasma, po, 10 mg/kg"}, "DAT-Cre mice": {"tested_on": "DAT-Cre mice", "assay": "Optical intracranial self-stimulation", "format": "in vivo, mouse", "conditions": "for effect on oICSS: 5 min prior to testing, vs vehicle"}, "[6]": {"assay": "Phase I metabolic stability in rat liver microsomes", "format": "in vitro ADME", "conditions": "rat liver microsomes fortified with NADPH, 60 min incubation, 10 μM compound"}, "rats [7]": {"tested_on": "rats", "assay": "Hot plate thermal nociception test", "format": "in vivo, rat"}, "rats [8]": {"tested_on": "rats", "assay": "Open-field locomotor activity", "format": "in vivo, rat", "conditions": "10 or 20 mg/kg i.p., vs vehicle"}, "Long-Evans rats [9]": {"tested_on": "Long-Evans rats", "assay": "Oxycodone self-administration under progressive-ratio", "conditions": "20 mg/kg i.p., normalized to baseline, vs vehicle"}, "rats [10]": {"tested_on": "rats", "conditions": "ref Ashby et al., 2003; cited from earlier work"}}, "note": "Counter-ions that a name gives are not always drawn."}
{"smiles": "CCc1cc(Cl)c(OC)c(N2CCN(CC(O)CCNC(=O)c3cc4ccccc4[nH]3)CC2)c1", "note": "(racemic) [(±)VK4-116]", "values": [{"measurement": "effect on oxycodone self-administration", "setting": "rats [1]; FR1 and PR schedules", "value": "dose-dependently inhibited oxycodone self-administration"}, {"measurement": "effect on oxycodone-triggered reinstatement of drug-seeking", "setting": "rats [1]", "value": "suppressed oxycodone-triggered reinstatement of drug-seeking behavior"}]}
{"smiles": "Cc1ncoc1-c1nnc(SCCCN2C[C@@H]3C[C@]3(c3ccc(C(F)(F)F)cc3F)C2)n1C", "note": "[GSK598809]", "values": [{"measurement": "effect on food-taking and food-seeking behavior", "setting": "[2]", "value": "significantly inhibit food-taking and food-seeking behavior"}]}
{"smiles": "O=C(NCCCCN1CCN(c2cccc(Cl)c2Cl)CC1)c1ccc2c(c1)Cc1ccccc1-2", "note": "[NGB-2904]", "values": [{"measurement": "effect on cocaine-induced extracellular nucleus accumbens DA", "setting": "[3]", "value": "enhanced cocaine-induced increases in extracellular nucleus accumbens DA"}, {"measurement": "effect on food-taking and food-seeking behavior", "setting": "[2]", "value": "significantly inhibit food-taking and food-seeking behavior"}]}
{"smiles": "O=C(NC/C=C/CN1CCN(c2cccc(Cl)c2Cl)CC1)c1ccc(-c2ccccn2)cc1", "note": "[PG01037]", "values": [{"measurement": "effect on food-taking and food-seeking behavior", "setting": "[2]", "value": "significantly inhibit food-taking and food-seeking behavior"}]}
{"smiles": "CCc1cccc(N2CCN(C[C@H](O)CCNC(=O)c3cc4ccccc4[nH]3)CC2)c1Cl.Cl", "note": "[R-VK4-40, (R)-N-(4-(4-(2-Chloro-3-ethylphenyl)piperazin-1-yl)-3-hydroxybutyl)-1H-indole-2-carboxamide HCl]", "values": [{"measurement": "effect on number of sucrose reinforcers earned", "setting": "wild-type C57BL/6J mice; 3 mg/kg i.p., vs vehicle", "value": "no statistically significant differences"}, {"measurement": "effect on number of sucrose reinforcers earned", "setting": "wild-type C57BL/6J mice; 10 mg/kg i.p., vs vehicle and 3 mg/kg", "value": "significantly reduced the number of sucrose reinforcers earned"}, {"measurement": "effect on oxycodone self-administration (infusions earned)", "setting": "Long-Evans rats [4]; FR1, 10 or 20 mg/kg i.p. 30 min before session, oxycodone 0.0031-0.05 mg/kg/infusion", "value": "dose-dependent reduction in oxycodone self-administration"}, {"measurement": "effect on daily oxycodone intake", "setting": "Long-Evans rats [4]; FR1, 10 or 20 mg/kg i.p. pretreatment", "value": "reduced oxycodone intake at the 0.00625 and 0.05 mg/kg doses"}, {"measurement": "effect on inactive lever responding", "setting": "Long-Evans rats [4]; FR1 oxycodone self-administration", "value": "no effect on inactive lever responding"}, {"measurement": "AUC(0-t)", "setting": "[5]", "value": "1.99 ± 0.28", "unit": "µM·h"}, {"measurement": "Cmax", "setting": "[5]", "value": "310 ± 110", "unit": "nM"}, {"measurement": "effect on oICSS, compound alone", "setting": "DAT-Cre mice; R-VK4-40 alone i.p. (10, 20 mg/kg as printed elsewhere in the source)", "value": "significant reduction in oICSS"}, {"measurement": "effect of pretreatment on oxycodone-enhanced oICSS", "setting": "DAT-Cre mice; pretreatment before 1 mg/kg oxycodone", "value": "significantly reduced low-dose (1 mg/kg) oxycodone enhancements in oICSS"}, {"measurement": "% intact remaining", "setting": "[6]", "value": "86±2", "unit": "%"}, {"measurement": "effect of pretreatment on %MPE", "setting": "rats [7]; 20 mg/kg i.p., after 1 mg/kg oxycodone", "value": "significant elevation of %MPE"}, {"measurement": "effect of pretreatment on oxycodone analgesia dose-response curve", "setting": "rats [7]; 10 or 20 mg/kg i.p. 30 min before oxycodone 0.5-4 mg/kg i.p.", "value": "shifted the oxycodone dose-response curve significantly upward"}, {"measurement": "effect on open-field locomotion", "setting": "rats [8]", "value": "no effect on open-field locomotion"}, {"measurement": "effect on PR break-point for oxycodone self-administration", "setting": "Long-Evans rats [9]", "value": "significant decrease in break-point"}]}
{"smiles": "N#Cc1ccc2c(c1)CCN(CCC1CCC(NC(=O)c3ccnc4ccccc34)CC1)C2", "note": "(stereo not shown) [SB-277011A]", "values": [{"measurement": "effect on opioid-induced conditioned place preference", "setting": "rats [10]", "value": "significantly inhibits opioid-induced conditioned place preferences (CPP)"}, {"measurement": "effect on food-taking and food-seeking behavior", "setting": "[2]", "value": "significantly inhibit food-taking and food-seeking behavior"}]}
{"smiles": "COc1ccc2c3c1O[C@H]1C(=O)CC[C@@]4(O)[C@@H](C2)N(C)CC[C@]314", "note": "[oxycodone, Oxycodone HCl, reference compound]", "values": [{"measurement": "effect on oICSS", "setting": "DAT-Cre mice; 1 mg/kg i.p.", "value": "significant increase in oICSS"}, {"measurement": "effect on oICSS", "setting": "DAT-Cre mice; 3 mg/kg i.p.", "value": "significant reduction in oICSS"}, {"measurement": "time of peak antinociceptive effect", "setting": "rats [7]; hot plate, after administration", "value": 30, "unit": "min"}]}
